# Key:
# Erk1/2 = experiment: Radiation-induced Erk phosphorylation in endothelial cells; type: cell-based; conditions: primary culture endothelial cells (Example 16)
# Protocol: Phosphorylation of MEK and Erk proteins was also investigated. Erk1/2 was activated following a single 3 Gy dose of irradiation. Erk was phosphorylated within 15 minutes, which resolved within 60 minutes. SU6668 is a broad spectrum inhibitor of split kinase domain RTKs, including Flk-1, Flt-1, PDGFR, fibroblast growth factor receptor (FGFR), and c-Kit (Mendel et al, 2003).
# (§1) The role of RTKs in radiation-induced activation of the Akt signaling pathway was examined by studying a panel of tyrosine kinase inhibitors including PDGF receptor antagonists in primary culture endothelial cells. PDGF receptor antagonists including SU6668, SU11248, and STI571, attenuated radiation-induced phosphorylation of both Akt and Erk. […] Similar efficacy in blocking Erk1/2 phosphorylation in irradiated endothelial cells was found.
# LLC hind limb tumors = experiment: Tumor growth delay, LLC hind limb tumors; type: in vivo, mice
# Protocol: (§2) Destruction of tumor vasculature results in ischemia, which could reduce radiosensitivity of tumors. To determine whether SU11248 enhances tumor growth delay in irradiated tumors, mice bearing LLC and GL261 hind limb tumors were treated with intraperitoneal injection of 40 mg/kg SU11248 or control vehicle 30 minutes prior to each 3 Gy dose of radiation for a total of seven administrations. Both the inhibitor and radiation were discontinued after day 8. Time to doubling of LLC tumor size was 5, 6, 8 and 16 days for vehicle, SU11248, vehicle+21 Gy, and SU11248+21 Gy, respectively.
# HUVEC cells = experiment: Clonogenic survival analysis of HUVEC; type: cell-based, human; conditions: HUVEC treated with SU11248 prior to irradiation; p<0.05
# Protocol: The ability of PI3K antagonist to suppress the clonogenic potential of HUVEC cells treated with radiation was assayed by clonogenic survival analysis. The ability of HUVEC cells treated with LY294002 30 minutes prior to irradiation to form colonies was compared to that of HUVEC cells treated with either radiation or LY294002 alone, and also to that of untreated HUVEC cells. […] Briefly, groups of three HUVEC culture plates were treated at each of four radiation dose levels: 2, 4, 6, and 8 Gy, either with or without prior treatment with PI3K antagonists as described in Example 2. After treatment with radiation and/or antagonists, cells were trypsinized, counted by hemocytometer, and subcultured into fresh medium. After 14 days, the cells were fixed with cold methanol and stained with 1% methylene blue. Colonies with greater than 50 cells were counted and the surviving fraction was determined.
# PDGFRβ = experiment: Phospho-PDGFRβ immunohistochemistry of GL261 tumors; type: in vivo, C57BL6 mice; conditions: administered one hour prior to 3 Gy
# Excerpt: To determine to the level of phosphorylation of PDGF receptor, GL261 mouse tumor models were sectioned and stained. A phospho-specific antibody to PDGFRβ Tyr751 (Cell Signaling Technology, Beverly, Mass., United States of America) was used. Tumors produced by injecting GL261 murine glioma cells into the hind limb of C57BL6 mice were stained for phospho-PDGFRβ and visualized using immunohistochemistry. Phospho-PDGFRβ staining was graded as 2+ relative to staining in negative controls.
# To determine whether cytotoxic therapy alters PDGFRβ phosphorylation, the tumor was irradiated (3 Gy) and snap frozen following irradiation. […] Positive staining for phosphorylated PDGFR was found in endothelium and tumor stroma.
# Western immunoblots were performed to verify radiation induced an increase in phosphorylation of PDGFRβ. Protein extracted from irradiated HUVEC had increased phosphorylation of PDGFRβ.
# Akt = experiment: Western immunoblot of radiation-induced Akt phosphorylation in endothelial cells; type: cell-based
# Protocol: Broad spectrum RTK inhibitors were tested for their abilities to attenuate radiation-induced phosphorylation of Akt. SU6668, a tyrosine kinase inhibitor of VEGFR, PDGFR, FGFR, and c-Kit, was added to endothelial cells prior to irradiation. Western immunoblots using phospho-specific antibodies to phosphorylated Akt (P-Akt) were prepared.
# as §1
# tumor vasculature = experiment: Intravital tumor vascular window, vascular length density, SU11248; type: in vivo, mice
# Protocol: Growth factors produced by tumors could enhance the viability of tumor vascular endothelium. To determine whether SU11248 enhances radiation-induced destruction of tumor vasculature, SU11248 was administered to mice prior to irradiation with 3 Gy. Tumor vascular linear density was measured by use of intravital tumor vascular window. […] Five mice were treated in each of the treatment groups, and the vascular length density after treatment was quantified. Mean vascular length densities over four days are shown as a bar graph.
# tumor endothelium = experiment: TUNEL and vWF co-staining of tumor sections; type: in vivo
# Excerpt: To determine whether SU11248 interacts with radiation through the induction of apoptosis in tumor endothelium, TUNEL staining of tumor sections was utilized. Tumor sections were co-stained for the endothelial marker von Willebrand factor (vWF) and TUNEL.
# tumors [1] = experiment: Maintenance SU11248 after radiation, tumor growth delay; type: in vivo
# Protocol: Upon the discontinuation of therapy, tumors rapidly regrow. To determine whether maintenance of SU11248 beyond the completion of radiation improved growth delay, this RTK inhibitor was administered twice daily continuously in groups treated with radiation alone or SU11248 and radiation. Beginning after day 8, three groups (drug alone, radiation+vehicle, and combined therapy) were maintained with twice daily intraperitoneal administrations of 20 mg/kg SU11248 for an additional 7 days. Maintenance treatment was discontinued after day 17, and subsequently resumed after four days of drug holiday.
# tumors [2] = experiment: Power Doppler tumor blood flow, SU11248 and radiation; type: in vivo; conditions: p<0.053
# Excerpt: To determine whether prolonged growth delay correlated with reduction in tumor blood flow, amplitude modulated Power Doppler was used to monitor blood flow. Reduced blood flow in tumors treated with SU11248 and radiation correlated with improved tumor growth delay.
# GL261 hind limb tumors = experiment: Tumor growth delay, GL261 hind limb tumors, SU11248; type: in vivo, mice; conditions: SU11248 prior to daily 3 Gy fractions, p<0.05
# Protocol: as §2
# HUVECs = experiment: Apoptotic nuclei in HUVEC, SU11248 and 6 Gy; type: cell-based, human; conditions: 24 hours
# Protocol: To determine whether broad spectrum RTK inhibition enhances the cytotoxic effects of radiation on vascular endothelium, SU11248 was added 30 minutes prior to irradiation. HUVECs were treated with vehicle control, and either 100 nM SU11248 orvehicle combined with 6 Gy. […] Untreated control cells show 2% apoptotic nuclei as compared to 7 and 8% after treatment with SU11248 or radiation, respectively (p>0.1). […] To determine whether enhanced apoptotic response in endothelial cells treated with SU11248 results in reduced clonogenic cell survival, HUVEC were subcultured and colony formation was quantified.
compound,measurement,setting,value
CCN(CC)CCNC(=O)c1c(C)[nH]c(/C=C2\C(=O)Nc3ccc(F)cc32)c1C [SU11248],radiation-induced phosphorylation of Erk,Erk1/2,attenuated
same,time to doubling of LLC tumor size,"LLC hind limb tumors; 40 mg/kg i.p. 30 minutes prior to each 3 Gy dose, 21 Gy total, vehicle+21 Gy 8 days",16 days
same,time to doubling of LLC tumor size,"LLC hind limb tumors; 40 mg/kg i.p., seven administrations, no radiation, vehicle 5 days",6 days
same,tumor growth delay compared to either agent alone,"LLC hind limb tumors; LLC, SU11248 prior to daily 3 Gy fractions, p<0.05",significant increase
same,clonogenic survival compared to radiation alone,HUVEC cells,significant reduction
same,radiation-induced PDGFR phosphorylation,PDGFRβ,markedly attenuated
same,radiation-induced activation of Akt,"Akt; irradiated vascular endothelium, summary statement",attenuate
same,radiation-induced phosphorylation of Akt,Akt; primary culture endothelial cells (Example 16),attenuated
same,"vascular length density, % of that at 0 hour",tumor vasculature; SU11248 alone,84%
same,"vascular length density, % of that at 0 hours","tumor vasculature; SU11248 followed by 3 Gy, within 72 hours, p<0.01",8%
same,apoptotic cells in tumor sections,tumor endothelium; SU11248 alone,could not be detected
same,apoptotic cells in tumor sections,"tumor endothelium; radiation and SU11248, 24 hours following treatment, no apoptotic tumor cells",TUNEL positive endothelial cells
same,growth to 4-fold that of day 0 tumors,"tumors [1]; maintenance 20 mg/kg i.p. twice daily for 7 days after day 8, p<0.05 in all groups",significantly delays
same,tumor growth after re-initiation of SU11248,tumors [1]; re-initiation at day 21 after four days of drug holiday,second phase of tumor growth delay
same,tumor blood flow compared to radiation alone,tumors [2],approached significant reduction
same,tumor growth delay compared to either agent alone,GL261 hind limb tumors,significant increase
same,endothelial cells with apoptotic nuclei,HUVECs; 100 nM SU11248 30 minutes prior to 6 Gy,21%
same,endothelial cells with apoptotic nuclei,"HUVECs; 100 nM SU11248 alone, untreated 2%",7%

# Source: patent US20060084697A1, “Pi3k antagonists as radiosensitizers” (priority 2002, published 2006)
